IC50 data for 1 molecule are collected here from patent US20230090293A1, “ANTIBIOTICS” (ASTON UNIVERSITY, priority 2020, published 2023).

Molecules are shown by their SMILES.

For experiment [1], the system named is HCT116 (colorectal cancer cell line). Kind of experiment: In vitro chemosensitivity (MTT) assay, HCT116. The format is cell-based, human. The conditions noted are these: 24 h exposure, 72 h recovery, mean ± SD. As to the method:
(§1) In vitro chemosensitivity tests were performed against HCT116 (colorectal cancer cell line), A2780 and A2780cisR (cisplatin sensitive and cisplatin resistant ovarian cancer cell lines, respectively). Cancer cell lines were routinely maintained as monolayer cultures in RPMI medium supplemented with 10% foetal calf serum, penicillin (100 I.U./ml) and streptomycin (100 μg/ml), sodium pyruvate (1 mM) and L-glutamine (2 mM). For chemosensitivity studies, cells were incubated in 96-well plates at a concentration of 7.5×10^3 cells per well and the plates were incubated for 24 hours at 37° C. and a 5% CO2 humidified atmosphere prior to drug exposure.
(§2) Complexes were dissolved in dimethylsulfoxide (DMSO) to provide stock solutions which were further diluted with media to provide a range of final concentrations. Drug-media solutions were added to cells (the final concentration of DMSO was less than 0.5% (v/v) in all cases) and incubated for 24 hours at 37° C. and 5% CO2 humidified atmosphere. […] A Thermo Scientific Multiskan EX microplate photometer was used to measure the absorbance in each well at 570 nm. Cell survival was determined as the absorbance of treated cells divided by the absorbance of controls and expressed as a percentage. The IC50 values were determined from plots of % survival against drug concentration. […]

Experiment [2] deals with A2780cisR (cisplatin resistant ovarian cancer cell line). Briefly: In vitro chemosensitivity (MTT) assay, A2780cisR. The format is cell-based, human. The following applies: 24 h exposure, 72 h recovery, mean ± SD. As to the method: as §1, §2

As to `N.N.[Cl][Pt][Cl]` [cisplatin], the IC50 (as a rule, the concentration that inhibits the measured activity by half) in experiment [1] was determined as 59.8 ± 7.5 µM; in experiment [2] it was 11.9 ± 2.2 µM.
